Tests used:
[1] = Metabolism test using human liver microsomes (LC/HRMS); assay type: in vitro ADME; conditions: incubated 37° C. for 1 hour
Protocol: The S(+) form or the R(−) form of MA5 was dissolved in acetonitrile (for LC-MS, manufactured by Kanto Chemical Co., Inc.) and each adjusted to 10 mM. 855 mg of sucrose (manufactured by FUJIFILM Wako Pure Chemical Corporation) was dissolved in 10 mL of water to prepare a 250 mM sucrose solution, and then by using this solution, a liquid containing 20 mg/mL human liver microsomes (8-donor-pool, manufactured by Sekisui XenoTech, LLC) was diluted 4-fold to prepare a 5 mg/mL human liver microsome suspension. In a 1 mL tube, 5 μL of three test solutions (sucrose solution containing 10 mM S(+) form of MA5, sucrose solution containing 10 mM R(−) form of MA5, or control Vehicle [sucrose solution]), 5 μL of NADPH Regenerating System Solution B (manufactured by Corning Incorporated), 100 μL of UGT Reaction Mix Solution B (manufactured by Corning Incorporated), and 275 μL of water were added to 50 μL of the human liver microsome suspension, and the resulting mixture was shaken for 30 seconds and preincubated at 37° C. for 5 minutes. After that, 25 μL of NADPH Regenerating System Solution A (manufactured by Corning Incorporated) and 40 μL of UGT Reaction Mix Solution A (manufactured by Corning Incorporated) were added, and the resulting mixture was shaken for 30 seconds and incubated at 37° C. for 1 hour. The reaction was stopped by adding 500 μL of an ice-cold acetonitrile solution containing 0.1% formic acid, and the resulting mixture was shaken for 30 seconds, sonicated for 10 minutes, and then centrifuged at 20,000×g at 4° C. for 10 minutes. 50 μL of the supernatant was collected in a fresh 1 mL tube, centrifugally concentrated at 2,000 rpm at room temperature (25 to 35° C.) for 30 minutes, and frozen at −80° C. […]
Q-Exactive (manufactured by Thermo Fisher Scientific Inc.) was used as an HRMS apparatus. […] Additional MS^2 data were measured in target MS^2 mode for both positive and negative ions. […]

HBlEpC cell line = experiment: Cytotoxicity evaluation 1: viable cell level by WST-8 assay; assay type: cell-based, human; conditions: 30 nM to 1 mM, cultured 48 hours
Protocol: Hereinafter, the present invention will be described more specifically with reference to Examples, but the technical scope of the present invention is not limited to these Examples. The INS-1E cell line was cultured in an incubator (37° C., 21% O2, 5% CO2) in the presence of RPMI-1640 Medium (manufactured by GIBCO) containing 11.1 mM glucose, 10% FBS, 1 mM sodium pyruvate, 10 mM HEPES, 2 mM glutamine, 50 μM β-mercaptoethanol, penicillin at 100 U/mL, and streptomycin at 100 μg/mL (hereinafter simply referred to as “RPMI-1640 Medium”). […]
An HBlEpC cell line (manufactured by Cell Application) was seeded in a 96-well plate at 2×10^3 cells per well, 0.1% DMSO, which is a solvent for the compounds, or various concentrations (30 NM, 100 nM, 300 nM, 1 μM, 3 μM, 10 μM, 30 μM, 100 μM, 300 μM, or 1 mM) of three compounds (racemic form of MA5, S(+) form of MA5, or R(−) form of MA5) were added to the HBlEpC culture medium, and the cells were cultured for 48 hours. […] The viable cell level (viable cell count level) after culture was measured by a WST-8 assay using Cell Count Reagent SF (manufactured by Nacalai Tesque, Inc.).

Compound: O=C(C[C@@H](C(=O)O)c1c[nH]c2ccccc12)c1ccc(F)cc1F [R(−) form of MA5, 4-(2,4-difluorophenyl)-2-(1H-indol-3-yl)-4-oxo-butanoic acid]
- glucuronide conjugates (+C6H8O6 [+1.7 min, +2.6 min]) [1]: detected
- viability of the cells (viable cell level, OD450) (HBlEpC cell line): the viability of the cells was higher than when the HBlEpC cell line was cultured in the presence of the racemic form of MA5

Compound: O=C(C[C@H](C(=O)O)c1c[nH]c2ccccc12)c1ccc(F)cc1F [S(+) form of MA5, 4-(2,4-difluorophenyl)-2-(1H-indol-3-yl)-4-oxo-butanoic acid]
- glucuronide conjugates (+C6H8O6 [+1.7 min, +2.6 min]) [1]: detected only at a level that was little or no different from the control
- viability of the cells (viable cell level, OD450) (HBlEpC cell line): the viability of the cells was higher with the S(+) form of MA5 than with the R(−) form of MA5

Source: US20240270692A1, “S(+) FORM OF 4-(2,4-DIFLUOROPHENYL)-2-(1H-INDOL-3-YL)-4-OXO-BUTANOIC ACID” (TOHOKU UNIVERSITY, priority 2021, published 2024)
